Molecular target: T1, human MRGPRX2 (Homo sapiens, UniProt Q96LB1)
T1 construct: expressed in transfected cells; host or cells: CHO cells, stably transfected (G418 and Hygromycin B selection)
T1 sequence (Q96LB1 1-330): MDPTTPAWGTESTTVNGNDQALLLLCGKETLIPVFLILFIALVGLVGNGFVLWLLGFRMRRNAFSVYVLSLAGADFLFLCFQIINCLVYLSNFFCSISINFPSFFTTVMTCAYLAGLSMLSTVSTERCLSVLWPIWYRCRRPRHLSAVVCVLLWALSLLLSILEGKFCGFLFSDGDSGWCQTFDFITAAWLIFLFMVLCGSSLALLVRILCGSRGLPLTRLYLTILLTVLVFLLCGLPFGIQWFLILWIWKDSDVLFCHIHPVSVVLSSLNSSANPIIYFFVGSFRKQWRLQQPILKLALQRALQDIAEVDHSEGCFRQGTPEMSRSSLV
Experiment: MRGPRX2 activity: IP-One Gq HTRF assay in CHO cells, antagonism versus 0.3 uM Cortistatin-14
Assay type: cell-based
Details: versus 0.3 uM Cortistatin-14 agonist, CHO cells expressing human MRGPRX2, read-out: MRGPRX2 Antagonist Activity
Procedure, shortened: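 CHO cells stably expressing human MRGPRX2 were treated with a 10-point compound curve (30 uM top, 1:3) plus 0.3 μM Cortistatin-14 in LiCl-containing Tris buffer, pH 8. Incubation was 1 h at 37 °C then 1 h at room temperature; IP-1 was detected by HTRF and IC50 came from the HTRF ratio.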

IC50 [nM] | SMILES
1000 to 2500 | O=S1(=O)N=C(NCc2ncccc2F)Nc2c1ccc(F)c2Oc1ccccc1-c1ccccc1 [Compound 1-35, 5-([1,1′-biphenyl]-2-yloxy)-6-fluoro-3-(((3-fluoropyridin-2-yl)methyl)amino)-4H-benzo[e][1,2,4]thiadiazine 1,1-dioxide]
100 to 500 | COc1cccc(CNC2=NS(=O)(=O)c3ccc(F)c(Oc4ccccc4Cl)c3N2)c1 [Compound 1-3, 5-(2-chlorophenoxy)-6-fluoro-3-((3-methoxybenzyl)amino)-4H-benzo[e][1,2,4]thiadiazine 1,1-dioxide]
< 100 | O=C(c1ccccc1Cl)c1cccc2c1NC(NCc1ncccc1C(F)(F)F)=NS2(=O)=O [Compound 16-4, (2-chlorophenyl)(1,1-dioxido-3-(((3-(trifluoromethyl)pyridin-2-yl)methyl)amino)-4H-benzo[e][1,2,4]thiadiazin-5-yl)methanone]
< 100 | O=C(c1ccccc1Cl)c1cccc2c1NC(NCc1ncccc1Cl)=NS2(=O)=O [Compound 16-1, (2-chlorophenyl)(3-(((3-chloropyridin-2-yl)methyl)amino)-1,1-dioxido-4H-benzo[e][1,2,4]thiadiazin-5-yl)methanone]
100 to 500 | CC(c1ccc2ccccc2c1)c1c(F)ccc2c1NC(NCc1cccc(F)c1)=NS2(=O)=O (centres unmarked) [Compound 22-8, 6-fluoro-3-((3-fluorobenzyl)amino)-5-(1-(naphthalen-2-yl)ethyl)-4H-benzo[e][1,2,4]thiadiazine 1,1-dioxide]
< 100 | O=S1(=O)N=C(NCc2cccc(Cl)c2F)Nc2c1ccc(F)c2Oc1ccccc1Cl [Compound 1-25, 3-((3-chloro-2-fluorobenzyl)amino)-5-(2-chlorophenoxy)-6-fluoro-4H-benzo[e][1,2,4]thiadiazine 1,1-dioxide]
< 100 | Cc1ccccc1Cc1cccc2c1NC(NCc1ccccc1F)=NS2(=O)=O [Compound 6-7, 3-((2-fluorobenzyl)amino)-5-(2-methylbenzyl)-4H-benzo[e][1,2,4]thiadiazine 1,1-dioxide]
< 100 | O=S1(=O)N=C(NCc2cccc(F)n2)Nc2c1ccc(F)c2Oc1ccccc1Cl [Compound 2-4, 5-(2-chlorophenoxy)-6-fluoro-3-(((6-fluoropyridin-2-yl)methyl)amino)-4H-benzo[e][1,2,4]thiadiazine 1,1-dioxide]
< 100 | N#Cc1ccc2c(c1Oc1ccccc1F)NC(NCc1ncccc1Cl)=NS2(=O)=O [Compound 3-1, 3-(((3-chloropyridin-2-yl)methyl)amino)-5-(2-fluorophenoxy)-4H-benzo[e][1,2,4]thiadiazine-6-carbonitrile 1,1-dioxide]
100 to 500 | O=S1(=O)N=C(NCc2ncccc2F)Nc2c1ccc(F)c2C#Cc1ccccc1 [Compound 19-1, 6-fluoro-3-(((3-fluoropyridin-2-yl)methyl)amino)-5-(phenylethynyl)-4H-benzo[e][1,2,4]thiadiazine 1,1-dioxide]
< 100 | CC(C)(C)c1cccc(Cl)c1Oc1c(F)ccc2c1NC(NCc1ncccc1F)=NS2(=O)=O [Compound 1-36, 5-(2-(tert-butyl)-6-chlorophenoxy)-6-fluoro-3-(((3-fluoropyridin-2-yl)methyl)amino)-4H-benzo[e][1,2,4]thiadiazine 1,1-dioxide]
< 100 | O=S1(=O)N=C(NCc2cccnc2F)Nc2c(Cc3ccccc3Cl)cccc21 [Compound 12-28, 5-(2-chlorobenzyl)-3-(((2-fluoropyridin-3-yl)methyl)amino)-4H-benzo[e][1,2,4]thiadiazine 1,1-dioxide]
< 100 | COc1cc(F)ccc1CNC1=NS(=O)(=O)c2cccc(Cc3ccccc3Cl)c2N1 [Compound 12-9, 5-(2-chlorobenzyl)-3-((4-fluoro-2-methoxybenzyl)amino)-4H-benzo[e][1,2,4]thiadiazine 1,1-dioxide]
501 to 1000 | O=S1(=O)N=C(NCc2cccc3ccccc23)Nc2c1cc(F)c(F)c2Cc1ccccc1Cl [Compound 4-20, 5-(2-chlorobenzyl)-6,7-difluoro-3-((naphthalen-1-ylmethyl)amino)-4H-benzo[e][1,2,4]thiadiazine 1,1-dioxide]
100 to 500 | O=S1(=O)N=C(NCc2ncccc2F)Nc2c1ccc(F)c2Oc1ccc(F)cc1 [Compound 2-7, 6-fluoro-5-(4-fluorophenoxy)-3-(((3-fluoropyridin-2-yl)methyl)amino)-4H-benzo[e][1,2,4]thiadiazine 1,1-dioxide]
< 100 | Cc1cccc(C)c1Cc1cccc2c1NC(NCc1ccccc1F)=NS2(=O)=O [Compound 6-17, 5-(2,6-dimethylbenzyl)-3-((2-fluorobenzyl)amino)-4H-benzo[e][1,2,4]thiadiazine 1,1-dioxide]

IC50 [nM] | SMILES
501 to 1000 | O=S1(=O)N=C(NCc2ccc(F)cc2)Nc2c1cc(F)c(F)c2Cc1ccccc1Cl [Compound 4-13, 5-(2-chlorobenzyl)-6,7-difluoro-3-((4-fluorobenzyl)amino)-4H-benzo[e][1,2,4]thiadiazine 1,1-dioxide]
< 100 | COc1ccccc1C(C)c1c(F)ccc2c1NC(NCc1cccc(F)c1)=NS2(=O)=O (centres unmarked) [Compound 22-26, 6-fluoro-3-((3-fluorobenzyl)amino)-5-(1-(2-methoxyphenyl)ethyl)-4H-benzo[e][1,2,4]thiadiazine 1,1-dioxide]
100 to 500 | COc1cccnc1CNC1=NS(=O)(=O)c2ccc(F)c(Oc3ccccc3Cl)c2N1 [Compound 1-30, 5-(2-chlorophenoxy)-6-fluoro-3-(((3-methoxypyridin-2-yl)methyl)amino)-4H-benzo[e][1,2,4]thiadiazine 1,1-dioxide]
100 to 500 | Cc1cccnc1CNC1=NS(=O)(=O)c2ccc(F)c(Oc3ccccc3Cl)c2N1 [Compound 1-32, 5-(2-chlorophenoxy)-6-fluoro-3-(((3-methylpyridin-2-yl)methyl)amino)-4H-benzo[e][1,2,4]thiadiazine 1,1-dioxide]
< 100 | Cc1ccc(CNC2=NS(=O)(=O)c3cccc(Cc4ccccc4Cl)c3N2)c(Cl)c1 [Compound 12-5, 3-((2-chloro-4-methylbenzyl)amino)-5-(2-chlorobenzyl)-4H-benzo[e][1,2,4]thiadiazine 1,1-dioxide]
< 100 | N#Cc1cccc(Cc2cccc3c2NC(NCc2ccccc2F)=NS3(=O)=O)c1 [Compound 6-12, 3-((3-((2-fluorobenzyl)amino)-1,1-dioxido-4H-benzo[e][1,2,4]thiadiazin-5-yl)methyl)benzonitrile]
100 to 500 | Cc1ccc(C(C)c2c(F)ccc3c2NC(NCc2cccc(F)c2)=NS3(=O)=O)cc1 (centres unmarked) [Compound 22-22, 6-fluoro-3-((3-fluorobenzyl)amino)-5-(1-(p-tolyl)ethyl)-4H-benzo[e][1,2,4]thiadiazine 1,1-dioxide]
100 to 500 | O=S1(=O)N=C(NCc2ncccc2F)Nc2c1ccc(F)c2/C=C/c1ccccc1F [Compound 14-2, (E)-6-fluoro-3-(((3-fluoropyridin-2-yl)methyl)amino)-5-(2-fluorostyryl)-4H-benzo[e][1,2,4]thiadiazine 1,1-dioxide]
< 100 | CC(c1ccccc1Cl)c1c(F)ccc2c1NC(NCc1ncccc1F)=NS2(=O)=O (centres unmarked) [Compound 8-1, 5-(1-(2-chlorophenyl)ethyl)-6-fluoro-3-(((3-fluoropyridin-2-yl)methyl)amino)-4H-benzo[e][1,2,4]thiadiazine 1,1-dioxide]
100 to 500 | CC(c1ccc2c(c1)CCCC2)c1c(F)ccc2c1NC(NCc1cccc(F)c1)=NS2(=O)=O (centres unmarked) [Compound 22-9, 6-fluoro-3-((3-fluorobenzyl)amino)-5-(1-(5,6,7,8-tetrahydronaphthalen-2-yl)ethyl)-4H-benzo[e][1,2,4]thiadiazine 1,1-dioxide]
< 100 | O=S1(=O)N=C(NCc2ccccc2F)Nc2c(Cc3cccc(Cl)c3)cccc21 [Compound 6-11, 5-(3-chlorobenzyl)-3-((2-fluorobenzyl)amino)-4H-benzo[e][1,2,4]thiadiazine 1,1-dioxide]
< 100 | O=S1(=O)N=C(NCc2ccccc2F)Nc2c(Cc3c(Cl)cccc3Cl)cccc21 [Compound 6-5, 5-(2,6-dichlorobenzyl)-3-((2-fluorobenzyl)amino)-4H-benzo[e][1,2,4]thiadiazine 1,1-dioxide]
< 100 | O=S1(=O)N=C(NCc2cccc(F)n2)Nc2c1ccc(Cl)c2Oc1ccccc1Cl [Compound 1-46, 6-chloro-5-(2-chlorophenoxy)-3-(((6-fluoropyridin-2-yl)methyl)amino)-4H-benzo[e][1,2,4]thiadiazine 1,1-dioxide]
< 100 | COc1ccccc1CNC1=NS(=O)(=O)c2ccc(F)c(C(C)c3ccccc3F)c2N1 (centres unmarked) [Compound 7-9, 6-fluoro-5-(1-(2-fluorophenyl)ethyl)-3-((2-methoxybenzyl)amino)-4H-benzo[e][1,2,4]thiadiazine 1,1-dioxide]
< 100 | O=S1(=O)N=C(NCc2ccc(F)cc2F)Nc2c(Cc3ccccc3Cl)cccc21 [Compound 12-11, 5-(2-chlorobenzyl)-3-((2,4-difluorobenzyl)amino)-4H-benzo[e][1,2,4]thiadiazine 1,1-dioxide]
100 to 500 | O=S1(=O)N=C(NCc2ccc(F)cc2)Nc2c1ccc(F)c2Oc1ccccc1Cl [Compound 1-12, 5-(2-chlorophenoxy)-6-fluoro-3-((4-fluorobenzyl)amino)-4H-benzo[e][1,2,4]thiadiazine 1,1-dioxide]
